Our source for the mutagenic call values is PubChem BioAssay AID1259407 (Chemical Carcinogenesis Research Information System (CCRIS), 2018).

Activity calls are given as the source filed them. No rule for the calls is given here.

For the series, the system named is CCRIS mutagenicity, Ames/micronucleus/aberration tests. Put plainly: CCRIS mutagenicity studies.
Setting [1] is: Test System: AMES SALMONELLA TYPHIMURIUM, Strain/Indicator: TA98, Metabolic Activation: NONE, Method: STANDARD PLATE.
Where [2] appears, read: Test System: AMES SALMONELLA TYPHIMURIUM, Strain/Indicator: TA98, Metabolic Activation: RAT, LIVER, S-9, AROCLOR 1254, Method: STANDARD PLATE.
Where [3] appears, read: Test System: AMES SALMONELLA TYPHIMURIUM, Strain/Indicator: TA100, Metabolic Activation: NONE, Method: STANDARD PLATE.
The mark [4] stands for this setting: Test System: AMES SALMONELLA TYPHIMURIUM, Strain/Indicator: TA100, Metabolic Activation: RAT, LIVER, S-9, AROCLOR 1254, Method: STANDARD PLATE.
Setting [5] is: Test System: AMES SALMONELLA TYPHIMURIUM, Strain/Indicator: TA1535, Metabolic Activation: NONE, Method: STANDARD PLATE.
Where [6] appears, read: Test System: AMES SALMONELLA TYPHIMURIUM, Strain/Indicator: TA1535, Metabolic Activation: RAT, LIVER, S-9, AROCLOR 1254, Method: STANDARD PLATE.
The mark [7] stands for this setting: Test System: AMES SALMONELLA TYPHIMURIUM, Strain/Indicator: TA1537, Metabolic Activation: NONE, Method: STANDARD PLATE.
Setting [8] is: Test System: AMES SALMONELLA TYPHIMURIUM, Strain/Indicator: TA1537, Metabolic Activation: RAT, LIVER, S-9, AROCLOR 1254, Method: STANDARD PLATE.
[9] abbreviates: Test System: AMES SALMONELLA TYPHIMURIUM, Strain/Indicator: TA102, Metabolic Activation: NONE, Method: STANDARD PLATE.

On to `O=C(O)[C@H](O)[C@@H](O)C(=O)O`, for which the mutagenic call by setting is: (End Point: IN VIVO MICRONUCLEUS, Test System: BONE MARROW POLYCHROMATIC ERYTHROCYTES, Species: MOUSE, Strain/Sex: DDY/MALE, Route: IP) “inactive; negative; authors report chemical name as sodium d-tartrate with cas number of s”; (Test System: AMES SALMONELLA TYPHIMURIUM, Strain/Indicator: TA97, Metabolic Activation: NONE, Method: PREINCUBATION) “inactive; negative”; (Test System: AMES SALMONELLA TYPHIMURIUM, Strain/Indicator: TA97, Metabolic Activation: RAT, LIVER, S-9, AROCLOR 1254, Method: PREINCUBATION) “inactive; negative”; (Test System: AMES SALMONELLA TYPHIMURIUM, Strain/Indicator: TA98, Metabolic Activation: NONE, Method: PREINCUBATION) “inactive; negative”; under setting [1], “inactive; negative”; (Test System: AMES SALMONELLA TYPHIMURIUM, Strain/Indicator: TA98, Metabolic Activation: RAT LIVER S-9, PHENOBARBITAL AND BETA-NAPHTHOFLAVONE, Method: PREINCUBATION) “inactive; negative”. Moreover, the mutagenic call is, setting by setting: under setting [2], “inactive; negative”; (Test System: AMES SALMONELLA TYPHIMURIUM, Strain/Indicator: TA100, Metabolic Activation: NONE, Method: PREINCUBATION) “inactive; negative”; under setting [3], “inactive; negative”; (Test System: AMES SALMONELLA TYPHIMURIUM, Strain/Indicator: TA100, Metabolic Activation: RAT LIVER S-9, PHENOBARBITAL AND BETA-NAPHTHOFLAVONE, Method: PREINCUBATION) “inactive; negative”; under setting [4], “inactive; negative”; (Test System: AMES SALMONELLA TYPHIMURIUM, Strain/Indicator: TA102, Metabolic Activation: NONE, Method: PREINCUBATION) “inactive; negative”. The mutagenic call runs as follows: (Test System: AMES SALMONELLA TYPHIMURIUM, Strain/Indicator: TA102, Metabolic Activation: RAT, LIVER, S-9, AROCLOR 1254, Method: PREINCUBATION) “inactive; negative”; (Test System: AMES SALMONELLA TYPHIMURIUM, Strain/Indicator: TA1535, Metabolic Activation: NONE, Method: PREINCUBATION) “inactive; negative”; under setting [5], “inactive; negative”; (Test System: AMES SALMONELLA TYPHIMURIUM, Strain/Indicator: TA1535, Metabolic Activation: RAT LIVER S-9, PHENOBARBITAL AND BETA-NAPHTHOFLAVONE, Method: PREINCUBATION) “inactive; negative”; under setting [6], “inactive; negative”; (Test System: AMES SALMONELLA TYPHIMURIUM, Strain/Indicator: TA1537, Metabolic Activation: NONE, Method: PREINCUBATION) “inactive; negative”. In addition, the mutagenic call under setting [7] is “inactive; negative”; the mutagenic call (Test System: AMES SALMONELLA TYPHIMURIUM, Strain/Indicator: TA1537, Metabolic Activation: RAT LIVER S-9, PHENOBARBITAL AND BETA-NAPHTHOFLAVONE, Method: PREINCUBATION) is “inactive; negative”; the mutagenic call under setting [8] is “inactive; negative”; the mutagenic call (Test System: AMES SALMONELLA TYPHIMURIUM, Strain/Indicator: TA1538, Metabolic Activation: NONE, Method: STANDARD PLATE) is “inactive; negative”; the mutagenic call (Test System: AMES SALMONELLA TYPHIMURIUM, Strain/Indicator: TA1538, Metabolic Activation: RAT, LIVER, S-9, AROCLOR 1254, Method: STANDARD PLATE) was “inactive; negative”; the mutagenic call (Test System: E. COLI, Strain/Indicator: WP2, Metabolic Activation: NONE, Method: STANDARD PLATE) is “inactive; negative”. The mutagenic call reads like this: (Test System: E. COLI, Strain/Indicator: WP2, Metabolic Activation: RAT, LIVER, S-9, AROCLOR 1254, Method: STANDARD PLATE) “inactive; negative”; (Test System: E.COLI, Strain/Indicator: WP2UVRA/PKM101, Metabolic Activation: NONE, Method: PREINCUBATION) “inactive; negative”; (Test System: E.COLI, Strain/Indicator: WP2UVRA/PKM101, Metabolic Activation: RAT LIVER S-9, PHENOBARBITAL AND BETA-NAPHTHOFLAVONE, Method: PREINCUBATION) “inactive; negative”.

For the molecule `CCN(CC)c1ccc(N=Nc2c(Cl)cc([N+](=O)[O-])cc2[N+](=O)[O-])cc1`, the mutagenic call under setting [1] was “inactive; negative”; the mutagenic call under setting [2] was “active; positive”; the mutagenic call under setting [3] is “active; positive”; the mutagenic call under setting [4] was “active; positive”; the mutagenic call under setting [9] was “inactive; negative”; the mutagenic call (Test System: AMES SALMONELLA TYPHIMURIUM, Strain/Indicator: TA102, Metabolic Activation: RAT, LIVER, S-9, AROCLOR 1254, Method: STANDARD PLATE) was “active; positive”. The mutagenic call is “inactive; negative” under setting [5]; “active; positive” under setting [6]; “inactive; negative” under setting [7]; “active; positive” under setting [8]; “inactive; negative” (Test System: CHINESE HAMSTER V-79, Strain/Indicator: V-79 (HGPRT)/6-THIOGUANINE, Metabolic Activation: NONE); “inactive; negative” (Test System: CHINESE HAMSTER V-79, Strain/Indicator: V-79 (HGPRT)/6-THIOGUANINE, Metabolic Activation: RAT, LIVER, S-9, AROCLOR 1254). The mutagenic call by setting is: (Test System: CHINESE HAMSTER V-79, Strain/Indicator: V-79/8-AZAGUANINE, Metabolic Activation: RAT, LIVER, S-9, AROCLOR 1254) “inactive; negative”; (Test System: CHINESE HAMSTER V-79, Strain/Indicator: V-79/8-AZAQUANINE, Metabolic Activation: NONE) “inactive; negative”; (Test System: UDS RAT HEPATOCYTES, Strain/Indicator: THY INCORP, Metabolic Activation: NONE, Method: AUTORADIOGRAPHY) “inactive; negative”.

Take `CCCCCCCCS(=O)C(C)Cc1ccc2c(c1)OCO2` (centres undefined): the mutagenic call was “inactive; negative” (End Point: IN VITRO CHROMOSOMAL ABERRATIONS, Test System: CHINESE HAMSTER OVARY CELLS, Metabolic Activation: NONE) and “inactive; negative” (End Point: IN VITRO CHROMOSOMAL ABERRATIONS, Test System: CHINESE HAMSTER OVARY CELLS, Metabolic Activation: RAT, LIVER, S-9, AROCLOR 1254).

Regarding `N[C@H](CS)C(=O)O`, the mutagenic call is “inactive; negative” (Test System: AMES SALMONELLA TYPHIMURIUM, Strain/Indicator: TA92, Metabolic Activation: NONE, Method: STANDARD PLATE); “inactive; negative” (Test System: AMES SALMONELLA TYPHIMURIUM, Strain/Indicator: TA92, Metabolic Activation: RAT, KIDNEY, S-9, Method: STANDARD PLATE); “inactive; negative” (Test System: AMES SALMONELLA TYPHIMURIUM, Strain/Indicator: TA92, Metabolic Activation: RAT, LIVER, S-9, Method: STANDARD PLATE); “inactive; negative” under setting [3]; “inactive; negative” (Test System: AMES SALMONELLA TYPHIMURIUM, Strain/Indicator: TA100, Metabolic Activation: RAT, KIDNEY, S-9, Method: STANDARD PLATE); “inactive; negative” (Test System: AMES SALMONELLA TYPHIMURIUM, Strain/Indicator: TA100, Metabolic Activation: RAT, LIVER, S-9, Method: STANDARD PLATE).

With `COC1=CC(=O)C=CC1=Nc1c2ccccc2nc2ccccc12`, the mutagenic call under setting [7] was “inactive; negative”.

As to `O=C(O)c1cn(-c2ccc(F)cc2)c2cc(N3CCNCC3)c(F)cc2c1=O`, the mutagenic call was “inactive; negative” (Test System: AMES SALMONELLA TYPHIMURIUM, Strain/Indicator: TA97, Metabolic Activation: NONE, Method: STANDARD PLATE); “inactive; negative” (Test System: AMES SALMONELLA TYPHIMURIUM, Strain/Indicator: TA97, Metabolic Activation: S-9, Method: STANDARD PLATE); “inactive; negative” under setting [1]; “inactive; negative” (Test System: AMES SALMONELLA TYPHIMURIUM, Strain/Indicator: TA98, Metabolic Activation: S-9, Method: STANDARD PLATE); “inactive; negative” under setting [3]; “inactive; negative” (Test System: AMES SALMONELLA TYPHIMURIUM, Strain/Indicator: TA100, Metabolic Activation: S-9, Method: STANDARD PLATE). In addition, the mutagenic call is, setting by setting: under setting [9], “inactive; negative”; (Test System: AMES SALMONELLA TYPHIMURIUM, Strain/Indicator: TA102, Metabolic Activation: S-9, Method: STANDARD PLATE) “inactive; negative”.
